Measured values taken from patent publication US8716228B2, “GPR54 agonists or antagonists for treatment of diseases presenting behavioral abnormalities” (YEDA Research and Development Co. Ltd., priority 2009, dated 2014).

What was measured:
[1] = tested on: naive mice; assay: Tail suspension test; format: in vivo, mouse; settings: 100 μl of 100 μM, vs PBS
Procedure: Tail suspension test. The tail suspension apparatus was made of horizontal metal rod supported by a stand. Each mouse was suspended from its tail using adhesive tape, suspending each mouse individually. The immobility time was measured during a 6 min observation period, latency to first immobility and total immobility was calculated (FIG. 10A).
The results we presented above using the PPI paradigm only relate to the psychotic symptoms of schizophrenia. However, schizophrenia patients suffer from cognitive and negative symptoms as well (i.e depression). […] To address whether Kp-10 has an antidepressant potency we studied its effect in the tail suspension test, an established method for screening antidepressant-like activity in mice (Steru et al., 1985; Cryan et al., 2005). Naïve mice were treated with Kp-10 (SEQ ID NO:3; 100 μl of 100 μM) or PBS and were subjected to the tail suspension test, in which the mouse is suspended by the tail from a lever, and the movements of the animal are recorded (FIG. 10A). The latency to the first immobility was longer and the duration of the total immobility was shorter in the Kp-10 treated mice compared to PBS treated mice (FIGS. 10B-10C).

[2] = tested on: offspring of poly I:C treated dams; assay: PPI in offspring of poly I:C treated dams (mouse model for schizophrenia); format: in vivo
Procedure: Poly I:C administration. Rats or mice were bred, and the first day after copulation was defined as day 1 of pregnancy. On gestation day 15, pregnant animals were injected intravenously with 4.0 mg/kg poly I:C (Sigma-Aldrich, Israel) dissolved in saline, or an equivalent volume of saline as a control. Both rats and mice received the same protocol of poly I:C administration.
Prepulse Inhibition (PPI). PPI testing was performed within startle chambers purchased from Med Associates Inc (Med Associates, St. Albans, Vt., USA). PPI was analyzed as described previously (Kipnis et al., 2004). Briefly, during a period of acclimation, a 65-dB background noise was applied for 5-min, and continued throughout the test session. All sessions for testing of PPI consisted of startle trials (pulse alone, 40-ms, 120-dB), prepulse trials (prepulse 20-ms, 69, 73, 78, or 81 dB followed by a (100-ms delay) pulse), and no-stimulus trials. All sessions were presented in pseudo-random order. The average time between trials was 15 s (range 12-30 s). PPI was calculated as: % PPI=100−{[(startle response for prepulse+pulse)/(startle response for pulse-alone)]×100}. In all the experiments, there were no significant differences between groups in trials of startle reactivity to pulse alone, and in no-stimulation trials. Data from no-stimulation trials are not included in the results because the values obtained were negligible relative to values from trials containing startle stimuli. Reduced PPI is associated with schizophrenia-related behavior. The same protocol was used in mice and rats (FIG. 1A).
Kisspeptin treatment. Mice were injected i.p with 100 μl of 1/10/100 μM Kp-10 peptide (SEQ ID NO:3) (synthesized at the Weizmann Institute of Science, or Sigma-Aldrich, Israel) dissolved in PBS, 30 minutes before the PPI analysis.
The ability of a normal lymphocyte population to reverse abnormal PPI behavior in immune deficient mice, encouraged us to test whether immune cells derived from the offspring of poly I:C treated dams would reverse the abnormal behavior of SCID mice in the PPI test. […]

[3] = tested on: SCID mice; assay: Radial arm water maze (RAWM); format: in vivo, mouse; settings: i.p. 100 μl containing 100 μM at beginning of each of two days, vs PBS
Procedure: Radial arm water maze (RAWM). Mice were tested for two days on 6 radial arm water maze paradigm in a water pool, as described in Alamed et al. (2006). Briefly, mice received Kp-10 injection in the beginning of each day. On the first day, 15 trials were performed, in trials 1, 3, 5, 7, 9 and 11 the platform was visible, and in all other trials the platform was hidden. On the second day, 12 trials were performed, all of them with hidden platform. The time required to reach the platform and the number of errors (incorrect arm entries) in 1-min time period were recorded (FIG. 11A).
One of the cognitive malfunctions in schizophrenia is deficit in spatial learning and memory. To evaluate whether kisspeptine can improve spatial learning and memory, we studied its effect in the radial arm water maze (RAWM), a hippocampal dependent spatial learning and memory assay. In this task, the mouse must find a platform that is located at one of the six maze arms; the time required to reach the platform and the number of errors along the way are recorded (Alamed et al., 2006) (FIG. 11A). Since wild type mice perform well in this test, the ability of Kp-10 to improve their performance is very limited. Therefore we used immune deficient mice (severe combined immunodeficiency; SCID), which have cognitive deficit manifested by poorer performance in the RAWM test. […]

Substance: YNWNSFGLRF—NH2 [Kp-10]
- duration of the total immobility [1]: shorter
- latency to the first immobility [1]: longer
- PPI at adulthood (12 weeks) ([2]; single i.p. injection at adolescence (8 weeks), 100 μl containing 100 μM, vs PBS): did not exhibit abnormal PPI
- PPI ([2]; treatment at adulthood (12 weeks) after onset, 100 μl of 100 μM, 30 min before PPI): improved the abnormal PPI
- latency time to find the platform [3]: improved
- number of errors [3]: reduced
